“Also recorded” adds a separate entry of the source.
Assays:
[1] = tested on: lysates of young adult wild type C. elegans; assay: Ex vivo ROS production detected by DCF fluorescence from C. elegans lysates; assay type: biochemical, Caenorhabditis elegans; conditions: 50 μM DTPA added to lysate (10 μg) of young adult wild type
Method: 2′,7′-dichlorodihydrofluorescein diacetate (DCFH-DA) at 10 μM was used as a fluorescent probe for reactive oxygen species (ROS) detection in vivo using standard protocols (33). DCFH-DA enters and accumulates in the intestinal cells, where it is oxidized by several ROS (including hydroxyl radicals) to form the fluorophore DCF(34). Analysis of fluorescence rate increase was performed on samples sonicated in 1×TBS, pH 7.4 and recovered as the supernatant from a 100,000 g centrifugation at 4° C. Total protein concentration was determined by a Nanodrop spectrophotometer (Thermo Scientific). […] Fluorescence in 8 replicate wells was quantitated (Ex: 485 nm, Em: 535 nm using a 495 nm cut-off) by a FlexStation (Molecular Devices) plate reader, using 30 reads every minute for 1 h at medium PMT setting. Values from lysate-free (negative) controls were subtracted and the fluorescence data was then base line corrected. A linear regression fitted from 20-40 minutes and the slopes were normalized against 4-day old wild type and plotted (Prism v5.0d, Graphpad Software).

C. elegans [2] = assay: SEC-ICP-MS (LC-ICP-MS) chromatographic distribution of iron in SIH-treated C. elegans; assay type: in vivo, Caenorhabditis elegans
Method: Samples were homogenized in TBS (pH 8.0) with added proteinase inhibitors (EDTA-free, Roche), then clarified by a 15 min centrifugation at 175,000 g, 4° C. The protein concentration of the supernatant was determined via UV absorbance (Nanodrop, ThermoScientific) and equivalent protein amounts were size-excluded using a Bio SEC-5 (4.6×300 mm, 5 μm, Agilent) column with 200 mM ammonium nitrate (trace analysis grade, Sigma) pH 8.0 buffer the flow rate was 0.4 mL/min at 30° C. The eluant from the column was directly connected to the ICP-MS for elemental detection as previously described (37).

C. elegans [3] = assay: Lifespan analysis of C. elegans treated with SIH; assay type: in vivo, Caenorhabditis elegans; conditions: for median lifespan: 25° C., treated from adulthood onwards, control (0 μM SIH) 12 days
Method: The effects of genetic ablation of ftn-2 and ftn-1 on wild type was measured using established protocols(11, 38). For SIH treatment compound was dissolved in dimethyl sulfoxide (Sigma-Aldrich) then added to the molten NGM at 55° C. along with 50 μg/mL amplicillin (Sigma-Aldrich). Media containing equivalent vehicle alone (0.5% v/v DMSO) and ampicillin was used for comparison. SIH data was collected using the temperature sensitive-sterile strain TJ1060. All life span assays were conducted at 25° C. following adulthood.
Kaplan-Maier survival curves were generated and compared via non-parametric Log rank tests (Prism v5.0d, Graphpad Software).

| Molecule | ROS production (DCF fluorescence) effect [1] | Ferritin-bound iron (Peak #2) effect (C. elegans [2]; 250 μM SIH, 10 day old, integration of peak area) | LMW-iron (Peak #3) effect in words (C. elegans [2]; 250 μM SIH, 10 day old, integration of peak area from triplicate data) | HMW-iron (Peak #1) effect (C. elegans [2]; 250 μM SIH, C. elegans aged to 10 days) | LMW-iron (Peak #3) normalized peak area change (C. elegans [2]; 250 μM SIH, C. elegans aged to 10 days, versus control) | total soluble zinc effect (C. elegans [2]; SIH treatment (data not shown)) | dose-dependency of lifespan extension (C. elegans [3]; 0, 100, 250 μM SIH) | median lifespan (C. elegans [3]; 100 μM SIH) | median lifespan (C. elegans [3]; 250 μM SIH) | increase in lifespan (C. elegans [3]; control versus 250 μM SIH median lifespan) |
| --- | --- | --- | --- | --- | --- | --- | --- | --- | --- | --- |
| diethylenetriamine penta-acetic acid [DTPA] | abolished; also recorded: silenced |  |  |  |  |  |  |  |  |  |
| O=C(NN=Cc1ccccc1O)c1ccncc1 [SIH, salicylaldehyde isonicotinoyl hydrazone] |  | reduced; also recorded: decreased | reduced; also recorded: lowered; also recorded: attenuated | unaffected | −43% | unaffected | dose-dependency | 17 days | 21 days | 75% |

From patent US20170266174A1, “Compositions and Methods for Extending Lifespan” (COLLABORATIVE MEDICINAL DEVELOPMENT LLC, priority 2014, published 2017)
